Counter-ions that a name gives are not always drawn.
The compounds below were run on mice (assay: phenyl-p-quinone writhing assay in mice (analgesia)). Conditions: Mus musculus, sc, 0.5 h, read-out: % Inhibition of Writhing.
Assay type: in vivo

Q: How did the inhibition in vivo at 20 mg/kg turn out when c1cc2c3c(c1)nc(N1CCNCC1)n3CCC2 [5,6-Dihydro-2-(1-piperazinyl)-4H-imidazo[4,5,1-ij]quinoline dihydrochloride] was run?
A: 57%

Q: Which inhibition in vivo at 20 mg/kg does the source give for c1cc2c3c(c1)nc(C1CCNCC1)n3CCC2 [2-(4-Piperidinyl)-5,6-dihydro-4H-imidazo[4,5,1-ij]quinoline fumarate] here?
A: 31%

Same assay, conditions: Mus musculus, sc, 0.5 h; 20 mg/kg subcutaneous, 30 minutes before injection of phenylquinone; mice; read-out: % Inhibition of Writhing

Q: For c1cc2c3c(c1)nc(N1CCSCC1)n3CCC2 [5,6-Dihydro-2-(4-thiomorpholinyl)-4H-imidazo[4,5,1-ij]quinoline hydrochloride], which inhibition in vivo at 20 mg/kg is on record?
A: 53%

Q: For CN(C)C1CCN(c2nc3cccc4c3n2CCC4)CC1 [5,6-Dihydro-2-(4-dimethylamino-1-piperidinyl)-4H-imidazo[4,5,1-ij]quinolinefumarate], which inhibition in vivo at 20 mg/kg is on record?
A: 48%

Q: Which inhibition in vivo at 20 mg/kg does the source give for Fc1ccc(C(CCCN2CCN(c3nc4cccc5c4n3CCC5)CC2)c2ccc(F)cc2)cc1 [4-[4,4-Bis(4-fluorophenyl)-butyl]-1-piperazinyl-5,6-dihydro-4H-imidazo[4,5,1-ij]quinoline] here?
A: 43%

Q: With c1cc2c3c(c1)nc(N1CCCCC1)n3CCC2 [5,6-Dihydro-2-(1-piperidinyl)-4H-imidazo[4,5.1-ij]quinoline hydrochloride] as the compound, how does the inhibition in vivo at 20 mg/kg read?
A: 68%

Q: For CC(=O)N1CCC(c2nc3cccc4c3n2CCC4)CC1 [1-Acetyl-4-[5,6-dihydro-4H-imidazo[4,5,1-ij]quinolin-2-yl]piperidine], which inhibition in vivo at 20 mg/kg is on record?
A: 51%

Q: Which inhibition in vivo at 20 mg/kg does the source give for c1ccc(CCN2CCN(c3nc4cccc5c4n3CCC5)CC2)cc1 [5,6-Dihydro-2-(4-phenylethyl-1-piperazinyl)-4H-imidazo[4,5,1-ij]quinoline] here?
A: 45%

Q: How did the inhibition in vivo at 20 mg/kg turn out when CCOC(=O)N1CCN(c2nc3cccc4c3n2CCC4)CC1 [Ethyl-4-[5,6-dihydro-4H-imidazo[4,5,1-ij]quinolin-2-yl]-1-piperazinecarboxylate fumarate] was run?
A: 47%

Same assay, conditions: Mus musculus, sc, read-out: % Inhibition of Writhing

Q: CCC(=O)O[C@](Cc1ccccc1)(c1ccccc1)[C@H](C)CN(C)C [propoxyphene, reference compound] was tested. Which inhibition in vivo at 5 mg/kg did it give?
A: 19%

— patent US5500423A, “5,6-dihydro-4H-imidazo[4,5,1-ij]quinolines” (Hoechst-Roussel Pharmaceuticals Inc., priority 1994, dated 1996)
